According to US20220249599A1, “TREATMENT OF IMPLANTS WITH ENGINEERED ANTIMICROBIAL AMPHIPHILIC PEPTIDES” (priority 2018, published 2022):
Values after ≈ are worked out from the molar mass of the structure shown. Ends that are not written are not given here.

Tests used:
[1] = system: Enterococcus faecium (n = 104); assay: microbe, parasite or virus in culture
Method: Comparator antibiotics were supplied by Micromyx, and stock solutions were prepared on the first day of testing using solvents recommended by CLSI (1). Stock solutions of all compounds were made at 40× the final testing concentration and stored at −80° C. prior to testing. Information regarding compound source, catalog and lot number, testing concentrations and drug diluent for the comparators and test agent are detailed below in Table 3.
The test organisms evaluated in this study consisted of clinical isolates from the Micromyx Repository and reference isolates from the American Type Culture Collection (ATCC; Manassas, Va.). The clinical isolates were obtained from USA hospitals. Upon initial receipt at Micromyx, the organisms were sub-cultured onto an appropriate agar medium. Following incubation, colonies were harvested from these plates and cell suspensions prepared and frozen at −80° C. with a cryoprotectant. Prior to testing, the isolates were streaked from frozen vials onto Trypticase Soy Agar with 5% sheep blood (Becton Dickenson [BD]; Sparks, MD; Lot Nos. 7173618, 7166759, 7208688, 72144895, 7228505 and Remel Lenexa, Kans. Lot No. 212574). Plates were incubated at 35° C. overnight.
Mueller Hinton II broth (MHB II; BD; Lot Nos. 6258541 and 7143896) was used for MIC testing of aerobic organisms.
(§1) MIC values were determined using a broth microdilution procedure described by CLSI (1, 3). Automated liquid handlers (Multidrop 384, Labsystems, Helsinki, Finland; Biomek 2000 and Biomek FX, Beckman Coulter, Fullerton Calif.) were used to conduct serial dilutions and liquid transfers.
To prepare the drug mother plates, which would provide the serial drug dilutions for the replicate daughter plates, the wells of columns 2-12 of standard 96-well microdilution plates (Costar 3795) were filled with 150 µl of the designated diluent for each row of drug. The test articles and comparator compounds ([…] at 40× the highest concentration to be tested) were dispensed into the appropriate wells in column 1. The Biomek 2000 was then used to make 2-fold serial dilutions in the mother plates from column 1 through column 11. The wells of Column 12 contained no drug and served as the organism growth control wells for the assay.
(§2) The daughter plates were loaded with 185 g L per well of MHB II using the Multidrop 384. The daughter plates were completed on the Biomek FX instrument which transferred 5 µL of drug solution from each well of a mother plate to the corresponding well of each daughter plate in a single step. A standardized inoculum of each test organism was prepared per CLSI methods (1). The inoculum for each organism was dispensed into sterile reservoirs divided by length (Beckman Coulter), and the Biomek 2000 was used to inoculate the plates. Daughter plates were placed on the Biomek 2000 work surface in reverse orientation so that inoculation took place from low to high drug concentration.
(§3) Plates were stacked 3-4 high, covered with a lid on the top plate, placed in plastic bags, and incubated at 35° C. for 16 to 20 hrs. Following incubation, the microplates were removed from the incubator and viewed from the bottom using a plate viewer. […] The MIC was read and recorded as the lowest concentration of drug that inhibited visible growth of the organism.
Clinical breakpoints to determine percent resistance within a given organism group were obtained from CLSI (3), with the exception of colistin for K. pneumoniae, Enterobacter spp., and E. coli, which are only available from EUCAST.

[2] = system: Staphylococcus aureus (n = 104); assay: microbe, parasite or virus in culture; assay type: cell-based
Method: The clinical isolates were obtained from USA hospitals. […] Plates were incubated at 35° C. overnight.

[3] = system: Acinetobacter baumannii ATCC 19606 (non-MDR); assay type: cell-based; settings: ATCC 19606
Method: (§4) Each peptide was formulated in PBS buffer prior to testing. Peptides of SEQ ID NO:5 and SEQ ID NO:8 were brought up in 100% DMSO with 0.002% polysorbate-80 at 1.28 mg/mL (40× the highest final test concentration of 32 mcg/mL). Final test concentration of DMSO was 2.5% in the assay at the first dilution for those two compounds.
(§5) Mueller Hinton II broth (MHB II; BD; Lot Nos. 6258541 and 7143896) was used for MIC testing of aerobic organisms. 0.002% polysorbate 80 (P80) was added to the test medium.
as §1
(§6) To prepare the drug mother plates, which would provide the serial peptide dilutions for the replicate daughter plates, the wells of columns 2-12 of standard 96-well microdilution plates (Costar 3795) were filled with 150 µl of the designated diluent for each row of peptide.
(§7) The test articles and comparator compounds ([…] at 40× the highest concentration to be tested) were dispensed into the appropriate wells in column 1. The Biomek 2000 was then used to make 2-fold serial dilutions in the mother plates from column 1 through column 11. The wells of Column 12 contained no drug and served as the organism growth control wells for the assay.
as §2, with “185 μL” for “185 g L”, “5 uL” for “5 µL”, “of peptide” for “of drug”, “CLSI methods.” for “CLSI methods (1).”
as §3, with “peptide” for “drug”

[4] = system: Enterococcus faecalis ATCC 29212 (VSE; QC); assay type: cell-based; settings: ATCC 29212
Method: as §4, §5, §1, §6, §7
as §2, with “185 μL” for “185 g L”, “5 uL” for “5 µL”, “of peptide” for “of drug”, “CLSI methods.” for “CLSI methods (1).”
as §3, with “peptide” for “drug”

[5] = system: Enterococcus faecalis ATCC 700802 (V583 VRE); assay type: cell-based; settings: ATCC 700802
Method: as §4, §5, §1, §6, §7
as §2, with “185 μL” for “185 g L”, “5 uL” for “5 µL”, “of peptide” for “of drug”, “CLSI methods.” for “CLSI methods (1).”
as §3, with “peptide” for “drug”

[6] = system: Enterococcus faecium ATCC 51559 (VRE); assay type: cell-based; settings: ATCC 51559
Method: as §4, §5, §1, §6, §7
as §2, with “185 μL” for “185 g L”, “5 uL” for “5 µL”, “of peptide” for “of drug”, “CLSI methods.” for “CLSI methods (1).”
as §3, with “peptide” for “drug”

[7] = system: Escherichia coli ATCC 25922 (QC); assay type: cell-based; settings: ATCC 25922
Method: as §4, §5, §1, §6, §7
as §2, with “185 μL” for “185 g L”, “5 uL” for “5 µL”, “of peptide” for “of drug”, “CLSI methods.” for “CLSI methods (1).”
as §3, with “peptide” for “drug”

[8] = system: Escherichia coli ATCC 35218 (ESBL); assay type: cell-based; settings: ATCC 35218
Method: as §4, §5, §1, §6, §7
as §2, with “185 μL” for “185 g L”, “5 uL” for “5 µL”, “of peptide” for “of drug”, “CLSI methods.” for “CLSI methods (1).”
as §3, with “peptide” for “drug”

[9] = system: Escherichia coli ATCC BAA-2471 (NDM-1); assay type: cell-based; settings: ATCC BAA-2471
Method: as §4, §5, §1, §6, §7
as §2, with “185 μL” for “185 g L”, “5 uL” for “5 µL”, “of peptide” for “of drug”, “CLSI methods.” for “CLSI methods (1).”
as §3, with “peptide” for “drug”

[10] = system: Klebsiella pneumoniae ATCC BAA-1705 (KPC); assay type: cell-based; settings: ATCC BAA-1705
Method: as §4, §5, §1, §6, §7
as §2, with “185 μL” for “185 g L”, “5 uL” for “5 µL”, “of peptide” for “of drug”, “CLSI methods.” for “CLSI methods (1).”
as §3, with “peptide” for “drug”

[11] = system: Pseudomonas aeruginosa ATCC 27853 (non-MDR; QC); assay type: cell-based; settings: ATCC 27853
Method: as §4, §5, §1, §6, §7
as §2, with “185 μL” for “185 g L”, “5 uL” for “5 µL”, “of peptide” for “of drug”, “CLSI methods.” for “CLSI methods (1).”
as §3, with “peptide” for “drug”

[12] = system: Pseudomonas aeruginosa ATCC BAA-2109 (MDR); assay type: cell-based; settings: ATCC BAA-2109
Method: as §4, §5, §1, §6, §7
as §2, with “185 μL” for “185 g L”, “5 uL” for “5 µL”, “of peptide” for “of drug”, “CLSI methods.” for “CLSI methods (1).”
as §3, with “peptide” for “drug”

[13] = system: Staphylococcus aureus ATCC 29213 (MSSA; QC); assay type: cell-based; settings: ATCC 29213
Method: as §4, §5, §1, §6, §7
as §2, with “185 μL” for “185 g L”, “5 uL” for “5 µL”, “of peptide” for “of drug”, “CLSI methods.” for “CLSI methods (1).”
as §3, with “peptide” for “drug”

[14] = system: Staphylococcus aureus ATCC 43300 (MRSA); assay type: cell-based; settings: ATCC 43300
Method: as §4, §5, §1, §6, §7
as §2, with “185 μL” for “185 g L”, “5 uL” for “5 µL”, “of peptide” for “of drug”, “CLSI methods.” for “CLSI methods (1).”
as §3, with “peptide” for “drug”

[15] = system: Staphylococcus aureus NRS382 (USA100; HA-MRSA); assay type: cell-based; settings: USA100
Method: as §4, §5, §1, §6, §7
as §2, with “185 μL” for “185 g L”, “5 uL” for “5 µL”, “of peptide” for “of drug”, “CLSI methods.” for “CLSI methods (1).”
as §3, with “peptide” for “drug”

[16] = system: Streptococcus pneumoniae ATCC 49619 (QC); assay type: cell-based; settings: ATCC 49619
Method: as §4, §5, §1, §6, §7
as §2, with “185 μL” for “185 g L”, “5 uL” for “5 µL”, “of peptide” for “of drug”, “CLSI methods.” for “CLSI methods (1).”
as §3, with “peptide” for “drug”

[17] = system: Streptococcus pyogenes ATCC 49399; assay type: cell-based; settings: ATCC 49399
Method: as §4, §5, §1, §6, §7
as §2, with “185 μL” for “185 g L”, “5 uL” for “5 µL”, “of peptide” for “of drug”, “CLSI methods.” for “CLSI methods (1).”
as §3, with “peptide” for “drug”

[18] = system: Acinetobacter baumannii ATCC BAA-1797 (MDR); assay: microbe, parasite or virus in culture; assay type: cell-based; settings: ATCC BAA-1797
Method: as §4, §5, §1, §6, §7
as §2, with “185 μL” for “185 g L”, “5 uL” for “5 µL”, “of peptide” for “of drug”, “CLSI methods.” for “CLSI methods (1).”
as §3, with “peptide” for “drug”

Molecule | MIC [3] [µg/mL] | MIC [4] [µg/mL] | MIC [5] [µg/mL] | MIC [6] [µg/mL] | MIC [7] [µg/mL] | MIC [8] [µg/mL] | MIC [9] [µg/mL] | MIC [10] [µg/mL] | MIC [11] [µg/mL] | MIC [12] [µg/mL] | MIC [13] [µg/mL] | MIC [14] [µg/mL] | MIC [15] [µg/mL] | MIC [16] [µg/mL] | MIC [17] [µg/mL] | MIC [18] [µg/mL] | also measured
CN[C@H](CC(C)C)C(=O)N[C@H]1C(=O)N[C@@H](CC(N)=O)C(=O)N[C@H]2C(=O)N[C@H]3C(=O)N[C@H](C(=O)N[C@H](C(=O)O)c4cc(O)cc(O)c4-c4cc3ccc4O)[C@H](O)c3ccc(c(Cl)c3)Oc3cc2cc(c3O[C@@H]2O[C@H](CO)[C@@H](O)[C@H](O)[C@H]2O[C@H]2C[C@](C)(N)[C@H](O)[C@H](C)O2)Oc2ccc(cc2Cl)[C@H]1O [Vancomycin] |  |  |  |  |  |  |  |  |  |  |  |  |  |  |  |  | MIC50 ([1]; Enterococcus faecium): 1 µg/mL (≈ 0.69 µM); MIC90 ([1]; Enterococcus faecium): > 32 µg/mL; MIC90 ([1]; Enterococcus faecium (n = 104)): >32 µg/mL; % R (isolates resistant) ([1]; Enterococcus faecium (n = 104), CLSI breakpoints): 47.1%; MIC ([1]; Enterococcus faecium, read-out: Mode (MIC)): > 32 µg/mL; MIC50 ([2]; Staphylococcus aureus): 1 µg/mL (≈ 0.69 µM); MIC90 ([2]; Staphylococcus aureus): 1 µg/mL (≈ 0.69 µM); % R (isolates resistant) ([2]; Staphylococcus aureus (n = 104), CLSI breakpoints): 0%; MIC range ([2]; Staphylococcus aureus (n = 104), all methicillin-resistant): 0.5 to 2 µg/mL; MIC ([2]; Staphylococcus aureus, read-out: Mode (MIC)): 1 µg/mL (≈ 0.69 µM)
IRRIIRRIRRIIRRIRRIIRR [SEQ ID NO: 4] | 8 | 8 | 8 | 4 | 4 | 8 | 4 | 32 | 8 | 4 | 8 | 4 | 4 | 16 | 16 | 8 | 
IRRRIRRIRRRIRRIRRRIRR [SEQ ID NO: 3] | 8 | 32 | >32 | 4 | 4 | 4 | 4 | 32 | 4 | 2 | 8 | 8 | 8 | 32 | 16 | 16 | 
